Source: US20240383845A1, “NAPHTHALENEDITHIOL AND DERIVATIVE THEREOF, AND PRODUCTION PROCESS AND USE FOR THE SAME” (SUGAI CHEMICAL INDUSTRY CO., LTD., priority 2021, published 2024)

Legend:
[1] = Refractive index (abbe refractometer); format: physicochemical; conditions: 25° C., 589 nm, value at 100% by mass by extrapolation
Protocol: The refractive index of each sample was measured using an abbe refractometer (“NAR-lT” manufactured by ATAGO CO., LTD.) at a temperature of 25° C. and a wavelength of 589 nm. Depending on the species of each sample, the refractive index was measured as follows.
For the after-mentioned 16NDSH, 15NDSH, 26NDSH and 27NDSH; 15DGNDSH; 15DHENDSH; 16DMNDSH and 15DMNDSH; and 16DCNDSH and 15DCNDSH, a sample was dissolved in 1,3-dimethyl-2-imidazolidinone (DMI) to prepare multiple solutions with different concentrations, and the refractive index of each solution was measured at a temperature of 25° C. and a wavelength of 589 nm. From the results of the refractive index at each concentration, the refractive index value at 100% by mass of the concentration was determined by extrapolation.
For the after-mentioned 16NDSHMA, 15NDSHMA, 26NDSHMA and 27NDSHMA; 16NDSHA and 15NDSHA; 15DANDSH; and 15DVNDSH, polymerization may occur during the mixing, and thus a sample was dissolved in a methoquinone/DMI solution (a solution containing 4000 ppm of methoquinone relative to the mass of DMI) to prepare multiple solutions with different concentrations. The refractive index of each solution was measured at a temperature of 25° C. and a wavelength of 589 nm. From the results of the refractive index at each concentration, the refractive index value at 100% by mass of the concentration was determined by extrapolation.
For the after-mentioned 16DANDSH; 16DVNDSH; 16DGNDSH; and 16DHENDSH, a sample was liquid for a while after preparation, and thus the refractive index was measured in the state of an undiluted solution. Further, thiol-ene-based resins (thiol-ene-based resins obtained from 16NDSH or 15NDSH and divinylbenzene) were measured in the same manner. […]

[2] = Dissolubility or compatibility (maximum dissolved concentration, HPLC); format: physicochemical; conditions: 25° C.; for Dissolubility, MMA: methyl methacrylate; for Dissolubility, PGMEA: propylene glycol monomethyl ether acetate; for Dissolubility, DMF: N,N-dimethylformamide; for Dissolubility, THF: tetrahydrofuran
Protocol: In more detail, the sample was added to a predetermined amount of a solvent or a polymerizable component until the sample was no longer dissolved, and the sample content of the liquid layer (the solvent layer) of the resulting mixture was analyzed using an HPLC (“SPD-20A” manufactured by SHIMADZU CORPORATION), and thus the concentration (the maximum dissolved concentration) of the sample in the liquid layer (the solvent layer) was determined as a solubility.

[3] = DMI solutions of different concentrations

SMILES	Refractive index [1, 3]	Dissolubility, Ethyl acetate [2]	Dissolubility, MMA [2] [% by mass]	Dissolubility, PGMEA [2] [% by mass]	Dissolubility, Styrene [2] [% by mass]	Dissolubility, Toluene [2]	melting point [°C]	Refractive index ([1]; methoquinone/DMI solutions)	Dissolubility, DMF [2] [% by mass]	Dissolubility, Methanol [2] [% by mass]	Dissolubility, THF [2] [% by mass]
CSc1ccc2c(SC)cccc2c1 [Example 16DMNDSH, 1,6-bis(methylthio)naphthalene]	1.690	Freely blended (>90) % by mass	62.3	42.3	68.7	Freely blended (>90) % by mass	52 to 53				
C=CC(=O)Sc1ccc2c(SC(=O)C=C)cccc2c1 [Example 16NDSHA, 1,6-bis(acryloylthio)naphthalene]		56.3 % by mass	55.7	44.3	59.4	58.4 % by mass	64 to 66	1.667			
Sc1ccc2cc(S)ccc2c1 [Example 26NDSH, 2,6-naphthalenedithiol]	1.718	0.65 % by mass		0.73		0.64 % by mass	196 to 197		3.54	0.11	4.03
Sc1ccc2ccc(S)cc2c1 [Example 27NDSH, 2,7-naphthalenedithiol]	1.721	0.90 % by mass		1.05		0.76 % by mass	186 to 188		7.75	0.16	5.24
